Measurements as given in patent US20110082148A1, “TREATING, PREVENTING OR AMELIORATING A HYPERPROLIFERATIVE DISEASE/DISORDER” (priority 2009, published 2011).

Tests used:
[1] = tested on: RPMI-8226-luc human myeloma xenografts; assay: RPMI-8226-luc human myeloma xenografts in NSG mice, survival; assay type: in vivo, NOD scid gamma (NSG) mice; conditions: for survival time: controls all died before 20 days
From the text: FIG. 5(a) illustrates the photons/sec/cm^2×10^−6 present over time in RPMI-8226-luc human myeloma xenografts in NSG mice.
FIG. 5(b) illustrates the percentage of male and female mice survival over time when provided varying dosage amounts of cinoxacin as compared to a control sample.
FIG. 5(b) illustrates the survival percentage of male and female mice when treated with various dosages of cinoxacin for a period of 10 to 40 days. FIGS. 5(a) and (b) display that the controls all died before 20 days had passed. The females died around 25 days; however, all the males survived for 40 days when treatment was stopped. […] By the time the drug was administered, the concentration of myeloma cells in female mice had reached about 9×10^6, which appears to be beyond repair.

[2] = tested on: HL60 xenograft; assay type: in vivo
Description: FIG. 4(b) illustrates the tumor volume growth of HL60 xenograft over time after treatment with cinoxacin in dosages of 100 mg/kg and 300 mg/kg as compared to control sample.
FIGS. 4(a) and (b) show the tumor volume growth of an HL60 xenograft over time after treatment with cinoxacin in different dosages as compared to a control sample. The cinoxacin was obtained from Signma Aldrich (MOL_ID—1), and solubilized in […] and phosphate buffered saline and administered […] to test mice. […] The treatment regimen was implemented as 3 day+3 day, with an ip single injection each day. Tumor volume was measured by ruler. […] The mice were provided a single dose daily for ten consecutive days. […] It is believed that higher dosages could also be used without incurring detrimental effects.

[3] = tested on: National Cancer Institute 60 cell line; assay: National Cancer Institute 60 cell line one dose test; assay type: cell-based; conditions: NCI 60 cell line, across many cell lines
Description: FIG. 1 illustrates a National Cancer Institute 60 cell line one dose mean graph for erdosteine. […] A National Cancer Institute 60 cell line test was performed using erdosteine. FIG. 1 illustrates the effectiveness of the erdosteine at inhibiting cancer cell growth in several cell lines. […] A National Cancer Institute 60 cell line test was performed using cinoxacin. FIG. 2 illustrates the effectiveness of the cinoxacin at inhibiting cancer cell growth in several cell lines is shown.

[4] = Administration to mice, adverse side effects; assay type: in vivo; conditions: from about 25 mg/kg to about 15 mg/kg
From the text: However, in any given case, the amount of the compound administered will depend on such factors as the solubility of the active component, the formulation used, subject condition (such as weight), and/or the route of administration.

Structure (SMILES)	survival time ([1]; female mice treated with cinoxacin)	survival time ([1]; male mice treated with cinoxacin, treatment stopped at 40 days) [days]	survival compared to female mice and controls ([1]; male mice, 1500 mg/kg/day)	tumor volume increase ([2]; FIG. 4(a), 100 mg/kg compared to 25 mg/kg and 50 mg/kg, 3 day+3 day, single injection each day)	growth of Leukemic cells (tumor volume growth) ([2]; FIG. 4(b), 100 mg/kg and 300 mg/kg vs control, single dose daily for ten consecutive days, particularly at 200 mg/kg)	cell growth compared with control specimen [3]	adverse side effects [4]
CCn1nc(C(=O)O)c(=O)c2cc3c(cc21)OCO3 [cinoxacin]	around 25 days	≥ 40	survival was prolonged	slower tumor volume increase	substantial slowing down of the growth of Leukemic cells	lower than in a control specimen	without adverse side effects
O=C(O)CSCC(=O)NC1CCSC1=O (stereo not drawn) [erdosteine]	–	–	–	–	–	lower than in a control specimen	without adverse side effects
